Results published in paper PMC6832920, “Synthesis, Docking Studies, and In Vitro Evaluation of Some Novel Thienopyridines and Fused Thienopyridine–Quinolines as Antibacterial Agents and DNA Gyrase Inhibitors” (Molecules, 2019).
In brackets after ≈: the same amount, converted by molar mass.

What was measured:
[1] = test system: Salmonella typhimurium 14028; assay: MIC determination by dilution procedure; type: cell-based; conditions: Salmonella enterica; S. typhimurium 14028; dilutions 125-1.95 μg/mL; read-out: minimum inhibitory concentration (MIC)
Method: (§1) The clinical control strains of Gram-negative bacteria (Escherichia coli 8739, Salmonella typhimurium 14028, Pseudomonas aeruginosa 27853) and Gram-positive bacteria (Bacillus subtilis 6633, Bacillus cereus 33018, Staphylococcus aureus 25923), were obtained from microbial inoculums by subculturing microorganisms into nutrient broth (NB) at 37 °C for 18 h, and were adjusted to 0.125 A° at 625 nm (equivalent to a McFarland 0.5) in 2-fold NB. A 100 μL measure of NB containing each test microorganism was added to the sterile Petri dishes. Antibacterial testing was carried out on all compounds (3a,b–14) using the agar disc-diffusion method [40]. Sterile nutrients were inoculated with 100 μL cell suspension of the chosen test microorganism and poured into Petri dishes (20 cm diameter). Filter paper discs (Whatman, No.3, diameter 5 mm) were loaded with 10 μL containing 100 μg of the tested compounds, as well as the standard drug. Composite compound disks were placed on the surface of inoculated agar plates and kept at low temperatures before incubation in order to support the swelling and diffusion of the microbial growth. The plates were incubated at 37 °C in the incubator. Experiments were performed in duplicate and the diameters of inhibition zones were measured after 24 h.

[2] = test system: Pseudomonas aeruginosa 27853; assay: MIC determination by dilution procedure; type: cell-based; conditions: Pseudomonas aeruginosa, 27853, P. aeruginosa 27853; dilutions 125-1.95 μg/mL; read-out: minimum inhibitory concentration (MIC)
DNA gyrase from E. coli = biological target: T1, DNA gyrase from E. coli (Escherichia coli, UniProt P0AES6); assay: Escherichia coli DNA gyrase supercoiling inhibition assay; type: biochemical
T1 construct: purchased TopoGEN

Bacillus cereus 33018 [3] = assay: agar disc-diffusion antibacterial assay; type: cell-based; conditions: B. cereus 33018, disc loaded with 100 μg, 37 °C, 24 h, read-out: diameter of inhibition zone
Method: (§2) A 100 μL measure of NB containing each test microorganism was added to the sterile Petri dishes. Antibacterial testing was carried out on all compounds (3a,b–14) using the agar disc-diffusion method [40]. Sterile nutrients were inoculated with 100 μL cell suspension of the chosen test microorganism and poured into Petri dishes (20 cm diameter). Filter paper discs (Whatman, No.3, diameter 5 mm) were loaded with 10 μL containing 100 μg of the tested compounds, as well as the standard drug. Composite compound disks were placed on the surface of inoculated agar plates and kept at low temperatures before incubation in order to support the swelling and diffusion of the microbial growth. The plates were incubated at 37 °C in the incubator. Experiments were performed in duplicate and the diameters of inhibition zones were measured after 24 h. A diameter of inhibition zone (DIZ) assay was performed to evaluate the antimicrobial potential of the compounds against the tested organisms compared with reference antibiotics.

Bacillus subtilis 6633 [4] = assay: MIC determination by dilution procedure; type: cell-based; conditions: B. subtilis 6633, dilutions 125-1.95 μg/mL, read-out: minimum inhibitory concentration (MIC)
Method: as §2

[5] = test system: Salmonella typhimurium 14028; assay: agar disc-diffusion antibacterial assay; type: cell-based; conditions: Salmonella enterica; S. typhimurium 14028; disc loaded with 100 μg; 37 °C, 24 h; read-out: diameter of inhibition zone
Method: as §1

Escherichia coli 8739 [6] = assay: agar disc-diffusion antibacterial assay; type: cell-based; conditions: E. coli 8739, disc loaded with 100 μg, 37 °C, 24 h, read-out: diameter of inhibition zone
Method: (§3) The clinical control strains of Gram-negative bacteria (Escherichia coli 8739, Salmonella typhimurium 14028, Pseudomonas aeruginosa 27853) and Gram-positive bacteria (Bacillus subtilis 6633, Bacillus cereus 33018, Staphylococcus aureus 25923), were obtained from microbial inoculums by subculturing microorganisms into nutrient broth (NB) at 37 °C for 18 h, and were adjusted to 0.125 A° at 625 nm (equivalent to a McFarland 0.5) in 2-fold NB. A 100 μL measure of NB containing each test microorganism was added to the sterile Petri dishes. Antibacterial testing was carried out on all compounds (3a,b–14) using the agar disc-diffusion method [40]. Sterile nutrients were inoculated with 100 μL cell suspension of the chosen test microorganism and poured into Petri dishes (20 cm diameter). Filter paper discs (Whatman, No.3, diameter 5 mm) were loaded with 10 μL containing 100 μg of the tested compounds, as well as the standard drug. Composite compound disks were placed on the surface of inoculated agar plates and kept at low temperatures before incubation in order to support the swelling and diffusion of the microbial growth. The plates were incubated at 37 °C in the incubator. Experiments were performed in duplicate and the diameters of inhibition zones were measured after 24 h. A diameter of inhibition zone (DIZ) assay was performed to evaluate the antimicrobial potential of the compounds against the tested organisms compared with reference antibiotics.

Bacillus cereus 33018 [7] = assay: MIC determination by dilution procedure; type: cell-based; conditions: B. cereus 33018, dilutions 125-1.95 μg/mL, read-out: minimum inhibitory concentration (MIC)
Method: as §2

Escherichia coli 8739 [8] = assay: MIC determination by dilution procedure; type: cell-based; conditions: E. coli 8739, dilutions 125-1.95 μg/mL, read-out: minimum inhibitory concentration (MIC)
Bacillus subtilis 6633 [9] = assay: agar disc-diffusion antibacterial assay; type: cell-based; conditions: B. subtilis 6633, disc loaded with 100 μg, 37 °C, 24 h, read-out: diameter of inhibition zone
Method: as §2

[10] = test system: Pseudomonas aeruginosa 27853; assay: agar disc-diffusion antibacterial assay; type: cell-based; conditions: P. aeruginosa 27853, disc loaded with 100 μg, 37 °C, 24 h, read-out: diameter of inhibition zone
Method: as §3

[11] = test system: Staphylococcus aureus 25923; assay: MIC determination by dilution procedure; type: cell-based; conditions: Staphylococcus aureus, 25923, S. aureus 25923; dilutions 125-1.95 μg/mL; read-out: minimum inhibitory concentration (MIC)
Method: as §2

[12] = test system: Staphylococcus aureus 25923; assay: agar disc-diffusion antibacterial assay; type: cell-based; conditions: S. aureus 25923, disc loaded with 100 μg, 37 °C, 24 h, read-out: diameter of inhibition zone
Method: as §3

Row | SMILES | MIC [1] [µg/mL] | MIC [2] [µg/mL] | IC50 (DNA gyrase from E. coli) [µM] | zone of inhibition at 100 µg/disc (Bacillus cereus 33018 [3]) [mm] | melting point [°C] | MIC (Bacillus subtilis 6633 [4]) [µg/mL] | zone of inhibition at 100 µg/disc [5] [mm] | zone of inhibition at 100 µg/disc (Escherichia coli 8739 [6]) [mm] | MIC (Bacillus cereus 33018 [7]) [µg/mL] | MIC (Escherichia coli 8739 [8]) [µg/mL] | zone of inhibition at 100 µg/disc (Bacillus subtilis 6633 [9]) [mm] | zone of inhibition at 100 µg/disc [10] [mm] | MIC [11] [µg/mL] | zone of inhibition at 100 µg/disc [12] [mm]
1 | O=C(CCl)Nc1c2c(nc3c1sc1nc(-c4ccco4)cc(-c4cccs4)c13)CCCC2 [Compound 6b, 2-Chloro-N-(2-(furan-2-yl)-4-(thiophen-2-yl)-6,7,8,9-tetrahydropyrido[3′,2′:4,5]thieno[3,2-b]quinolin-10-yl)acetamide] | 31.2 (≈ 65.1 µM) | 31.2 (≈ 65.1 µM) | 5.95 ± 0.34 | 15 | 338 | 15.6 (≈ 32.6 µM) | 12 | 16 | 15.6 (≈ 32.6 µM) | 15.6 (≈ 32.6 µM) | 15 | 12 |  | 
2 | COc1ccc(-c2cc(-c3ccco3)nc3sc4c(N=Cc5ccc(N(C)C)cc5)c5c(nc4c23)CCCC5)cc1 [Compound 12a, 4-(((2-(furan-2-yl)-4-(4-methoxyphenyl)-6,7,8,9-tetrahydropyrido[3′,2′:4,5]thieno[3,2-b]quinolin-10-yl)imino)methyl)-N,N-dimethylaniline] | 62.5 (≈ 112 µM) | 62.5 (≈ 112 µM) |  | 11 | 149 | 31.2 (≈ 55.9 µM) | 8 | 11 | 31.2 (≈ 55.9 µM) | 31.2 (≈ 55.9 µM) | 13 | 9 | 31.2 (≈ 55.9 µM) | 10
3 | COc1ccc(-c2cc(-c3ccco3)nc3sc4c(NC(=O)CCl)c5c(nc4c23)CCCC5)cc1 [Compound 6a, 2-Chloro-N-(2-(furan-2-yl)-4-(4-methoxyphenyl)-6,7,8,9-tetrahydropyrido[3′,2′:4,5]thieno[3,2-b]quinolin-10-yl)acetamide] |  | 31.2 (≈ 62 µM) | 13.7 ± 0.65 | 13 | 342 to 343 | 31.2 (≈ 62 µM) |  | 13 | 31.2 (≈ 62 µM) | 31.2 (≈ 62 µM) | 10 | 13 | 31.2 (≈ 62 µM) | 12
4 | COc1ccc(-c2cc(-c3ccco3)nc3sc4c(NC(=O)CNN=Cc5ccc(OC)c(OC)c5)c5c(nc4c23)CCCC5)cc1 [Compound 8a, 2-(2-(3,4-Dimethoxybenzylidene)hydrazinyl)-N-(2-(furan-2-yl)-4-(4-methoxyphenyl)-6,7,8,9-tetrahydropyrido[3′,2′:4,5]thieno[3,2-b]quinolin-10-yl)acetamide] |  |  |  | 9 | 187 | 31.2 (≈ 48.2 µM) |  |  | 31.2 (≈ 48.2 µM) |  | 11 |  | 31.2 (≈ 48.2 µM) | 11
5 | COc1ccc(-c2cc(-c3ccco3)nc(SCC(N)=O)c2C#N)cc1 [Compound 2a, 2-((3-Cyano-6-(furan-2-yl)-4-(4-methoxyphenyl)pyridin-2-yl)thio)acetamide] |  |  |  |  | 246 |  |  |  |  |  |  |  |  | 
6 | CC1(C)S[C@@H]2[C@H](NC(=O)[C@H](N)c3ccc(O)cc3)C(=O)N2[C@H]1C(=O)O [Amoxicillin, amoxicillin trihydrate, reference compound] | 15.6 | 15.6 |  | 19 |  | 15.6 | 21 | 20 | 15.6 | 15.6 | 17 | 18 | 15.6 | 19
7 | CC(=O)CC(=O)Nc1c2c(nc3c1sc1nc(-c4ccco4)cc(-c4cccs4)c13)CCCC2 [Compound 13, N-(2-(furan-2-yl)-4-(thiophen-2-yl)-6,7,8,9-tetrahydropyrido[3′,2′:4,5]thieno[3,2-b]quinolin-10-yl)-3-oxobutanamide] | 62.5 (≈ 128 µM) | 31.2 (≈ 64.1 µM) |  | 16 | 217 to 218 | 15.6 (≈ 32.1 µM) | 7 | 8 | 15.6 (≈ 32.1 µM) | 62.5 (≈ 128 µM) | 15 | 11 | 31.2 (≈ 64.1 µM) | 12
